Patent US20260284018A1, “DUAL INHIBITORS OF DYRK1A AND 5-HT2 FOR TREATING A BRAIN DISORDER” (THE REGENTS OF THE UNIVERSITY OF CALIFORNIA, priority 2023, published 2026)

Experiments:
[1] = tested on: embryonic rat cortical cultures; assay: Total neurite length in embryonic rat cortical cultures; format: cell-based; conditions: embryonic rat cortical cultures (DIV=0), treated for 72 h
Method: Each data point represents a well average from two independent cultures. Data are represented as mean f SEM. *p<0.05, **p<0.01, ***p<0.001, ****p<0.0001, as compared to the vehicle control following a one-way ANOVA with Dunnett's post hoc test. VEH=vehicle; DON=250 nM donepezil; OKA=30 nM okadaic acid.

[2] = tested on: C57BL/6J mice; assay: Head-twitch response; format: in vivo; conditions: for head-twitch response: intraperitoneal, up to 30 mg/kg
Method: (§1) Animals. Female C57BL/6J mice used in the head twitch response and locomotion assays, and Sprague Dawley dams used to generate embryonic cultures were obtained from Jackson Laboratory (Sacramento, CA). Mice were housed in a temperature- and humidity-controlled room maintained on a 12 h light/dark cycle in groups of four to five (same sex). Animals weighed between 17 and 30 g at the time of the experiments. All experimental procedures involving rodents were approved by the UC Davis Institutional Animal Care and Use Committee (IACUC) and adhered to principles described in the National Institutes of Health Guide for the Care and Use of Laboratory Animals. The University of California, Davis is accredited by the Association for Assessment and Accreditation of Laboratory Animal Care International (AAALAC).
(§2) Head-Twitch Response and Locomotion. Mice (9-10 weeks old) were injected intraperitoneally with compounds dissolved in 10% Kolliphor® EL (Sigma) and 10% DMSO in 0.9% saline (injection volume 5 mL/kg) or vehicle, placed in an empty cage, and filmed for 10 min. Locomotion was quantified using ANYmaze Video Tracking System, version 7.07 (Stoelting Co.). After 10 min, mice were then injected with 5-MeO-DMT dissolved in 0.9% saline (10 mg/kg, injection volume 5 mL/kg) or vehicle and filmed for 20 min. Cages were cleaned with 70% ethanol between experiments. […] The last 20 min of each video were scored by one trained observer blinded to the treatment conditions.

[3] = tested on: phospho-Tau; assay: Phospho-Tau assay using cultured rat cortical neurons (okadaic acid insult); format: cell-based; conditions: 30 nM okadaic acid; for Tau phosphorylated at Ser202/Thr205: 50 μM pretreatment; for Tau phosphorylated at Ser202/Thr205 / Tau phosphorylated at Ser396: rat cortical neurons; for Tau phosphorylated at Ser396 / hyperphosphorylation of Tau (pTau accumulation) induced by okadaic acid: pretreatment; for hyperphosphorylation of Tau (pTau accumulation) induced by okadaic acid: rat cortical cultures, FIG. 14 and 15B
Method: Phospho-Tau Assay Using Cultured Rat Cortical Neurons. Primary cortical cell cultures were prepared as described previously.^2 Briefly, pregnant Sprague Dawley dams were euthanized at embryonic day 18 (E18), and the cortices of the pups were harvested. Cells were plated on poly-d-lysine coated plates at 15,000 cells per well. Cultures were maintained at 37° C. under an atmosphere containing 5% CO2. Plating media consisted of 10% heat-inactivated fetal bovine serum (FBS; Fisher) 1% penicillin-streptomycin (Fisher), and 0.5 mM glutamine (Life Technologies) in Neurobasal (Fisher). After 16-24 h, media was exchanged for replacement media consisting of IX B27 supplement (Fisher), 1% penicillin-streptomycin, 0.5 mM glutamine, and 12.5 μM glutamate in Neurobasal. On DIV6 and DIV13, 50% of media was removed, and feeding media containing 1×B27 supplement, 1% penicillin-streptomycin, 0.5 mM glutamine in Neurobasal was added with an additional 20% volume added to account for evaporation. On DIV14, the volume of each well was adjusted to 180 μL. Next, 1000× solutions of compounds in DMSO were diluted 1:100 into Neurobasal and 20 μL of the resulting solutions was added to the appropriate wells (total dilution=1:1000, 0.1% DMSO). For wells that were not treated with compounds, DMSO was diluted 1:100 into Neurobasal and 20 μL of the resulting solution was added to the appropriate wells. All treatments were randomized. After 24 h, 20 μL was removed from each well. […] After 1 h, neurons were fixed by removing 80% of the media and replacing it with a volume of 4% aqueous paraformaldehyde (ThermoFisher) equal to 50% of the working volume of the well. Then, the cells were incubated at room temperature for 15 min before the fixative was aspirated and each well was washed twice with DPBS. Cells were permeabilized using 0.2% Triton X-100 (ThermoFisher) in DPBS for 15 min at room temperature without shaking. Plates were blocked with blocking buffer (2% bovine serum albumin and […] in DPBS) overnight at 4° C. Then, plates were incubated overnight at 4° C. with gentle shaking in antibody dilution buffer (ADB) (1% bovine serum albumin and […] in DBPS) containing a chicken anti-MAP2 antibody (1:10,000; EnCor, CPCA-MAP2), guinea pig anti-Tau antibody (1:1000; Synaptic Systems), mouse anti-phosphoTau (Ser202/Thr205) antibody (1:1000; Invitrogen), and rabbit anti-phosphoTau (Ser396) antibody (1:1000; Invitrogen). Plates were washed twice with DPBS and once with ADB before being incubated for 1 h at room temperature in ADB containing an anti-chicken IgY secondary antibody conjugated to Alexa Fluor™ Plus 800 (1:1000; Invitrogen), an anti-mouse IgG secondary antibody conjugated to Alexa Fluor™ Plus 680 (1:1000; Invitrogen), an anti-guinea pig IgG secondary antibody conjugated to Alexa Fluor™ 596 (1:1000; Invitrogen), and an anti-rabbit IgG secondary antibody conjugated to Alexa Fluor™ Plus 488 (1:1000; Invitrogen). Plates were washed three times with DBPS, and after the final wash, 100 μL of DPBS was added per well before imaging on a CellInsight™ CX7 High Content Analysis imager at 20× with 12 ROIs taken per well with no bias to location and no overlap of the ROIs. Images were analyzed using Cellnomics Scan software (version 6.6.2). The compartmental analysis assay was used to measure the average intensity of each channel per field and determine the reported intensity ratios.

[4] = tested on: C57BL/6J mice; assay: Locomotion in open field chamber; format: in vivo; conditions: doses up to 30 mg/kg
Method: as §1
as §2, with “Co.).” for “Co.). After 10 min, mice were then injected with 5-MeO-DMT dissolved in 0.9% saline (10 mg/kg, injection volume 5 mL/kg) or vehicle and filmed for 20 min. Cages were cleaned with 70% ethanol between experiments.”

[5] = target: T1, DYRK1A (Homo sapiens, UniProt Q13627); assay: DYRK1A inhibition (ADP-Glo assay); format: biochemical; conditions: FIG. 3
T1 construct: purchased Promega
Method: DYRK1A inhibition. IC50s for all compounds at DYRK1A were determined using an ADP-Glo™ assay kit (Promega) and DYRK1A enzyme system (Promega) following the manufacturer's protocol. In brief, 10 μL of DYRKtide substrate (1 mg/mL) and ATP (50 μM) in kinase reaction buffer (40 mM Tris HCl, 20 mM MgCl2, 0.1 mg/mL BSA, 50 μM DTT in DI water) was added to a solid white 96-well plate. Next, 5 μL of 5× compound solutions in kinase reaction buffer (5% DMSO) or 5% DMSO in kinase reaction buffer was added. Then 10 μL DYRK1A in kinase reaction buffer (2 ng/μL) was added and the plate was incubated at room temperature for 60 min before adding 25 μL ADP-Glo™ reagent. The plate was incubated for 40 min at room temperature. Subsequently, 50 μL of Kinase Detection Reagent was added, the plate was gently shaken for 1 min. and incubated away from light for 30-40 min. Finally, luminescence was measured using a BioTek Synergy HTX multi-mode reader (integration time=1 s). All data was normalized such that the luminescence produced by the lowest concentration treatment of each compound was set to 100% DYRK1A activity.

Compound | average total neurite length per neuron [1] | head-twitch response [2] | Tau phosphorylated at Ser202/Thr205 [3] | Tau phosphorylated at Ser396 [3] | total distance traveled in open field chamber [4] | inhibition of DYRK1A activity [5] | hyperphosphorylation of Tau (pTau accumulation) induced by okadaic acid [3] | dampening of head-twitch response produced by 5-MeO-DMT ([2]; 30 mg/kg pretreatment, 10 mg/kg 5-MeO-DMT)
COc1ccc2c(c1)N(CCN(C)C)/C(=C/C(C)=O)S2.O=C(O)/C=C/C(=O)O [HTW_B_14 fumarate, (Z)-1-(3-(2-(dimethylamino)ethyl)-5-methoxybenzo[d]thiazol-2(3H)-ylidene)propan-2-one Fumarate Salt (1:1)] | significantly increase average total neurite length per neuron | failed to produce a head-twitch response | not observed | no reduction | do not significantly affect the total distance traveled | able to inhibit DYRK1A activity |  | 
COc1ccc2c(c1)[nH]c1c(C)nccc12 [Harmine, harmine] |  |  |  |  |  |  | prevents pTau accumulation in cortical neurons | 
COc1ccc2c3ccnc(C)c3n(CCN(C)C)c2c1.O=C(O)/C=C/C(=O)O [HTW_A_8 fumarate, 2-(7-methoxy-1-methyl-9H-pyrido[3,4-b]indol-9-yl)-N,N-dimethylethan-1-amine Fumarate Salt (2:3)] | significantly increase average total neurite length per neuron | failed to produce a head-twitch response | can block an increase in Tau phosphorylated at Ser202/Thr205 | no reduction | do not significantly affect the total distance traveled | able to inhibit DYRK1A activity | blocks hyperphosphorylation of Tau | sufficient to dampen the head-twitch response
